In patent publication US5721214A, “Inhibitors of factor Xa” (COR Therapeutics, Inc., priority 1995, dated 1998):
Where two headings read alike, the source gives them in different places. Numbered stars: 1 amine (or outer) side, 2 acyl side, 3 side chain; on linkers, the order of the positions; unused ones are H or OH. Square brackets hold non-standard residues; d marks the D form. Peptide text beside a SMILES is read from it. * marks the point of attachment. d(hArg) = N=C(N)NCCCC[C@@H](N)C(=O)O; Hydrocinnamoyl = O=C(CCc1ccccc1)*; dCit = NC(=O)NCCC[C@@H](N)C(=O)O; Suc = O=C(CCC(=O)[*:2])[*:1]; Boc = CC(C)(C)OC(=O)*; Aib = CC(C)(N)C(=O)O

Experiments:
[1] = target: T1, thrombin (Homo sapiens, UniProt P00734); experiment: Thrombin amidolytic assay (Chromozym TH); type: biochemical
T1 construct: The formation of thrombin is the result of the proteolytic cleavage of its precursor prothrombin

[2] = target: factor Xa (Homo sapiens, UniProt P00742); experiment: Factor Xa amidolytic assay (chromogenic substrate S-2765); type: biochemical
Chain of factor Xa (P00742 235-488 limits assumed): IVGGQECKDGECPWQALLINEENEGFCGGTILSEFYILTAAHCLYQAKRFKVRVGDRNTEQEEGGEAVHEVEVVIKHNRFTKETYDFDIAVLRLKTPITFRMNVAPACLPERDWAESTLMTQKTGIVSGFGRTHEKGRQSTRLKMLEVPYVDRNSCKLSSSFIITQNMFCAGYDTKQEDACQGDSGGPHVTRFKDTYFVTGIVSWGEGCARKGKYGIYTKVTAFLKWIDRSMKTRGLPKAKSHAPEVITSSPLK
Chain of factor Xa (P00742 41-179 limits assumed): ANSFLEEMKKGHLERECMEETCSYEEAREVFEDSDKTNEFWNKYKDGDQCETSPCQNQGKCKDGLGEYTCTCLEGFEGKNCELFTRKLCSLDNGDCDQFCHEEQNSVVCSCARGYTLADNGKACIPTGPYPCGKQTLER

[3] = test system: thrombus growth in abdominal vena cava; experiment: Rabbit deep vein thrombosis model; type: in vivo; details: for Hct / PLT / RBC / WBC: mean±SD
From the text: Haemost. […] Rabbits were anesthetized with I.M. injections of Ketamine, Xylazine, and Acepromazine cocktail.

[4] = Pharmacokinetics/Pharmacodynamics in rabbits after I.V. bolus; type: in vivo; details: rabbit
[5] = target: prothrombinase complex (Homo sapiens, UniProt P00742); experiment: Prothrombinase inhibition assay, plasma free system; type: biochemical; details: 5 min preincubation, factor Xa 0.5 nM, factor Va 2 nM, pH 7.5; read-out: Inhibitory Activity (IC50) Prothrombinase
Chain of prothrombinase complex (P00742 235-488 limits assumed): as the sequence (P00742 235-488 limits assumed) above
Chain of prothrombinase complex (P00742 41-179 limits assumed): as the sequence (P00742 41-179 limits assumed) above

[6] = 5 min preincubation, room temperature, pH 7.5, read-out: Inhibitory Activity (IC50) Factor Xa
[7] = 5 min preincubation, room temperature, pH 7.5, read-out: Inhibitory Activity (IC50) Thrombin

N=C(N)NCCC[C@@H](C=O)NC(=O)CNC(=O)[C@@H](CCCNC(=N)N)NC(=O)COc1ccc2ccccc2c1 [2-NaphthoxyAc--D--Arg--Gly--Arg--H, 2-Napthoxyacetyl-D-Arg-Gly-Arg-H]
IC50 [1]: > 100000 nM

CC(C)(C)OC(=O)N[C@H](CCCNC(=N)N)C(=O)NC(C)(C)C(=O)N[C@H](C=O)CCCNC(=N)N [Boc--D--Arg--Aib--Arg--H, Boc-D-Arg-Aib-Arg-H] (Boc-[dR]-[Aib]-Arg-aldehyde)
IC50 [2, 6]: 552 nM

C[C@H](NC(=O)[C@@H](CCCNC(=N)N)NC(=O)OC(C)(C)C)C(=O)N[C@H](C=O)CCCNC(=N)N [Boc--D--Arg--Ala--Arg--H, Boc-D-Arg-Ala-Arg-H] (Boc-[dR]-Ala-Arg-aldehyde)
IC50 [2, 6]: 167 nM

C[C@@H](NC(=O)[C@@H](CCCNC(=N)N)NC(=O)OC(C)(C)C)C(=O)N[C@H](C=O)CCCNC(=N)N [Boc--D--Arg--D--Ala--Arg--H, Boc-D-Arg-D-Ala-Arg-H] (Boc-[dR]-[dA]-Arg-aldehyde)
IC50 [2, 6]: 230 nM

CC(C)(C)OC(=O)N[C@H](CCCN=C(N)N)C(=O)NCC(=O)N[C@H](C=O)CCCN=C(N)N [Boc--D--Arg--Gly--Arg--H, Boc-D-Arg-Gly-Arg-H] (Boc-[dR]-Gly-Arg-aldehyde)
Hct ([3]; 200 + 1.98 μg/kg + μg/kg/min): 36.9 ± 3.90% | PLT ([3]; 200 + 1.98 μg/kg + μg/kg/min): 393 ± 84 10^3 /μL | RBC ([3]; 200 + 1.98 μg/kg + μg/kg/min): 5.69 ± 0.14 10^6 /μL | WBC ([3]; 200 + 1.98 μg/kg + μg/kg/min): 4.45 ± 0.97 10^3 /μL | Hct ([3]; 600 + 5.94 μg/kg + μg/kg/min): 35.3 ± 3.01% | PLT ([3]; 600 + 5.94 μg/kg + μg/kg/min): 442 ± 81 10^3 /μL | RBC ([3]; 600 + 5.94 μg/kg + μg/kg/min): 5.74 ± 0.48 10^6 /μL | WBC ([3]; 600 + 5.94 μg/kg + μg/kg/min): 3.87 ± 0.65 10^3 /μL | Hct ([3]; 1000 + 9.90 μg/kg + μg/kg/min): 35.5 ± 1.01% | PLT ([3]; 1000 + 9.90 μg/kg + μg/kg/min): 375 ± 73 10^3 /μL | RBC ([3]; 1000 + 9.90 μg/kg + μg/kg/min): 5.71 ± 0.28 10^6 /μL | WBC ([3]; 1000 + 9.90 μg/kg + μg/kg/min): 5.09 ± 1.61 10^3 /μL | Hct ([3]; 1500 + 14.85 μg/kg + μg/kg/min): 36.0 ± 3.31% | PLT ([3]; 1500 + 14.85 μg/kg + μg/kg/min): 433 ± 22 10^3 /μL | RBC ([3]; 1500 + 14.85 μg/kg + μg/kg/min): 5.80 ± 0.50 10^6 /μL | WBC ([3]; 1500 + 14.85 μg/kg + μg/kg/min): 4.82 ± 1.01 10^3 /μL | effects on hematological parameters as compared to saline controls ([3]; bolus + infusion): no significant effects | changes in hematological parameters as compared to saline controls ([4]; 2.0 mg/kg I.V. bolus): no significant changes | mean clearance value (CL) ([4]; I.V.): 1.16 mL/min/kg | volume of distribution ([4]; I.V.): 0.1183 L/kg | mean plasma half-life ([4]; I.V., n=3): 1.18 h

CC(C)(C)OC(=O)N[C@H](CCCNC(=N)N)C(=O)NCC(=O)N[C@H](C=O)CCCNC(=N)N [Boc--D--Arg--Gly--Arg--H, Boc-D-Arg-Gly-Arg-H] (Boc-[dR]-Gly-Arg-aldehyde)
% Inhibition of Thrombosis ([3]; 200 + 1.98 μg/kg + μg/kg/min): 8.4% | % Inhibition of Thrombosis ([3]; 600 + 5.94 μg/kg + μg/kg/min): -6.6% | % Inhibition of Thrombosis ([3]; 1000 + 9.90 μg/kg + μg/kg/min): 58.6% | % Inhibition of Thrombosis ([3]; 1500 + 14.85 μg/kg + μg/kg/min): 31.4% | antithrombotic efficacy in the rabbit venous thrombosis model ([3]; bolus + infusion, all doses evaluated): demonstrated antithrombotic efficacy at the higher doses evaluated | IC50 [2, 6]: 50 nM | anticoagulative effect ([4]; 2.0 mg/kg I.V. bolus): plasma concentration-dependent anticoagulative effect

CC(C)(C)OC(=O)N[C@H](CCCNC(=N)N)C(=O)NCCC(=O)N[C@H](C=O)CCCNC(=N)N [Boc--D--Arg--β-Ala--Arg--H, Boc-D-Arg-β-Ala-Arg-H]
IC50 [1, 7]: > 500000 nM

CC(C)(C)OC(=O)N[C@H](CCCNC(N)=O)C(=O)NCC(=O)N[C@H](C=O)CCCN=C(N)N [Boc--D--Cit--Gly--Arg--H, Boc-D-Cit-Gly-Arg-H] (Boc-[dCit]-Gly-Arg-aldehyde)
IC50 [2]: 5000 nM | IC50 [5]: 44000 nM

CN(C)C(=NCCCC[C@@H](NC(=O)OC(C)(C)C)C(=O)NCC(=O)N[C@H](C=O)CCCNC(=N)N)N(C)C [Boc--D--Har((CH3)4)--Gly--Arg--H, Boc-D-Har((CH3)4)-Gly-Arg-H]
IC50 [1, 7]: > 100000 nM

CC(C)(C)OC(=O)N[C@H](CCCCNC(=N)N)C(=O)NCC(=O)N[C@H](C=O)CCCNC(=N)N [Boc--D--Har--Gly--Arg--H, Boc-D-Har-Gly-Arg-H] (Boc-[d(hArg)]-Gly-Arg-aldehyde)
IC50 [2, 6]: 100 nM | IC50 [5]: 173 nM | IC50 [1, 7]: 405000 nM

CC(C)(C)OC(=O)N[C@H](CCCCN)C(=O)NCC(=O)N[C@H](C=O)CCCNC(=N)N [Boc--D--Lys--Gly--Arg--H, Boc-D-Lys-Gly-Arg-H] (Boc-[dK]-Gly-Arg-aldehyde)
IC50 [2, 6]: 10000 nM

CCOC(=O)N[C@H](CCCN=C(N)N)C(=O)NCC(=O)N[C@H](C=O)CCCN=C(N)N [EtOCO--D--Arg--Gly--Arg--H, EtO2 C-D-Arg-Gly-Arg-H]
IC50 [2]: 49 nM

NC(N)=NCCC[C@@H](C=O)NC(=O)CNC(=O)[C@H](N)CCCN=C(N)N [H--D--Arg--Gly--Arg--H, D-Arg-Gly-Arg-H] (H-[dR]-Gly-Arg-aldehyde)
IC50 [2]: 64 nM | IC50 [5]: 830 nM | IC50 [1]: 41000 nM

N=C(N)NCCC[C@@H](C=O)NC(=O)CNC(=O)[C@@H](CCCNC(=N)N)NC(=O)CCC(=O)O [HOOC(CH2)2 CO--D--Arg--Gly--Arg--H, Succinoyl-D-Arg-Gly-Arg-H] (Suc-[dR]-Gly-Arg-aldehyde)
IC50 [2, 6]: 224 nM

N=C(N)NCCC[C@@H](C=O)NC(=O)CNC(=O)[C@@H](CCCNC(=N)N)NC(=O)CC(=O)O [HOOCCH2 CO--D--Arg--Gly--Arg--H, Malonoyl-D-Arg-Gly-Arg-H]
IC50 [2]: 98 nM

N=C(N)NCCC[C@@H](C=O)NC(=O)CNC(=O)[C@@H](CCCNC(=N)N)NC(=O)C(=O)O [HOOCCO--D--Arg--Gly--Arg--H, Oxaloyl-D-Arg-Gly-Arg-H]
IC50 [5]: 630 nM

N=C(N)NCCC[C@@H](C=O)NC(=O)CNC(=O)[C@@H](CCCNC(=N)N)NC(=O)CCc1ccccc1 [PhCH2 CH2 CO--D--Arg--Gly--Arg--H, 3-Phenylpropanoyl-D-Arg-Gly-Arg-H] (Hydrocinnamoyl-[dR]-Gly-Arg-aldehyde)
IC50 [2, 6]: 200 nM | IC50 [5]: 2000 nM | IC50 [1, 7]: 75000 nM

N=C(N)NCCC[C@@H](C=O)NC(=O)CNC(=O)[C@@H](CCCNC(=N)N)NS(=O)(=O)Cc1ccccc1 [PhCH2 SO2 --D--Arg--Gly--Arg--H, Benzylsulfonyl-D-Arg-Gly-Arg-H]
IC50 [1]: 33000 nM
